According to the supplement of paper PMC11061612:

Tests used:
[1] = test system: C2BBe1 (Colorectal Carcinoma); experiment: combination Emax (second highest fraction inhibited in the dose matrix, 72 h); higher = more inhibition; extreme values may be limits of the assay
Outline: (§1)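 Cell lines in DMEM/F12 or RPMI with 10% FBS were plated in 1536-well plates, held 24 hours at 37°C, 5% CO2, then given two-drug dose matrices for 72 hours (DMSO typically 0.2%). Viability was read by CellTiter-Glo 2.0 luminescence and scaled as inhibition from 0 (vehicle wells) to 1 (blank wells). Combination Emax is the second-highest inhibition in the matrix; Bliss excess is observed combination effect minus expected EA + EB − EA·EB, EA and EB being single-agent effects.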

[2] = test system: SW1463 (Colorectal Carcinoma); experiment: as above
Outline: as §1

SK-MEL-24 (Melanoma) [3] = experiment: as above
Outline: as §1

[4] = test system: OVKATE (Ovarian Carcinoma); experiment: as above
Outline: as §1

[5] = test system: NTERA-2-cl-D1 (Other Solid Carcinomas); experiment: as above
Outline: as §1

HT-144 (Melanoma) = experiment: as above
Outline: as §1

[6] = test system: JJN-3 (Plasma Cell Myeloma); experiment: as above
Outline: as §1

[7] = test system: JURL-MK1 (Chronic Myelogenous Leukemia); experiment: as above
Outline: as §1

[8] = test system: NCI-H2023 (Non-Small Cell Lung Carcinoma); experiment: Bliss excess, mean over the matrix (fraction); higher = more synergy
Outline: as §1

SK-MEL-24 (Melanoma) [9] = experiment: as above
Outline: as §1

[10] = test system: NCI-H1944 (Lung Adenocarcinoma); experiment: as above
Outline: as §1

[11] = test system: Daudi (Burkitt's Lymphoma); experiment: as above
Outline: as §1

[12] = test system: NCI-H1648 (Lung Adenocarcinoma); experiment: as above
Outline: as §1

SK-N-DZ (Neuroblastoma) = experiment: as above
Outline: as §1

[13] = test system: OVKATE (Ovarian Carcinoma); experiment: as above
Outline: as §1

C32 (Melanoma) = experiment: as above
Outline: as §1

[14] = test system: SBC-3 (Small Cell Lung Carcinoma); experiment: as above
Outline: as §1

[15] = test system: RS4-11 (B-Lymphoblastic Leukemia); experiment: as above
Outline: as §1

[16] = test system: NCI-H1435 (Non-Small Cell Lung Carcinoma); experiment: as above
Outline: as §1

[17] = test system: RPMI-8402 (T-Lymphoblastic Leukemia); experiment: as above
Outline: as §1
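For Bliss excess, mean over the matrix in this document: after 72 h of two-drug dosing.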

| Compound | combination Emax [1] | combination Emax [2] | combination Emax (SK-MEL-24 (Melanoma) [3]) | combination Emax [4] | combination Emax [5] | combination Emax (HT-144 (Melanoma)) | combination Emax [6] | combination Emax [7] | Bliss excess [8] | Bliss excess (SK-MEL-24 (Melanoma) [9]) | Bliss excess [10] | Bliss excess [11] | Bliss excess [12] | Bliss excess (SK-N-DZ (Neuroblastoma)) | Bliss excess [13] | Bliss excess (C32 (Melanoma)) | Bliss excess [14] | Bliss excess [15] | Bliss excess [16] | Bliss excess [17] |
| --- | --- | --- | --- | --- | --- | --- | --- | --- | --- | --- | --- | --- | --- | --- | --- | --- | --- | --- | --- | --- |
| CC(=O)Nc1cccc(-n2c(=O)n(C3CC3)c(=O)c3c(Nc4ccc(I)cc4F)n(C)c(=O)c(C)c32)c1 [Trametinib] + Cc1nc(-c2cn3c(n2)-c2ccc(-c4cnn(C(C)(C)C(N)=O)c4)cc2OCC3)n(C(C)C)n1 [Taselisib] (first compound max 1 µM, 7x7, partner max 10 µM) | 0.916 | 0.785 | 0.997 | 0.583 | 0.666 | 1 | 0.532 | 1 | 0.0549 | 0.012 | 0.175 | 0.0217 | 0.0655 | 0.0954 | 0.113 | 0.0958 | 0.0858 | 0.0927 | 0.107 | 0.0185 |
| CC1(C)CCC(CN2CCN(c3ccc(C(=O)NS(=O)(=O)c4ccc(NCC5CCOCC5)c([N+](=O)[O-])c4)c(Oc4cnc5[nH]ccc5c4)c3)CC2)=C(c2ccc(Cl)cc2)C1 [Venetoclax] + C1CN(CCC1(C(=O)N[C@@H](CCO)C2=CC=C(C=C2)Cl)N)C3=NC=NC4=C3C=CN4 [Capivasertib] (first compound max 1 µM, 7x7, partner max 3 µM) | 0.362 | 0.11 | 0.361 | 0.199 | 0.692 | 0.383 | 0.305 | 0.291 | -0.0449 | -0.0695 | -0.0343 | -0.0103 | -0.0405 | -0.0211 | -0.0458 | -0.0483 | -0.0457 | -0.003 | 0.0014 | -0.0544 |
| CC1(C)CCC(CN2CCN(c3ccc(C(=O)NS(=O)(=O)c4ccc(NCC5CCOCC5)c([N+](=O)[O-])c4)c(Oc4cnc5[nH]ccc5c4)c3)CC2)=C(c2ccc(Cl)cc2)C1 [Venetoclax] + C=CCn1c(=O)c2cnc(Nc3ccc(N4CCN(C)CC4)cc3)nc2n1-c1cccc(C(C)(C)O)n1 [AZD1775] (first compound max 1 µM, partner max 1 µM) | 0.39 | 0.36 | 0.401 | 0.381 | 0.856 | 0.509 | 0.693 | 0.999 | 0.0053 | -0.0473 | -0.0808 | -0.0267 | -0.0451 | 0.0353 | -0.0169 | 0.0075 | 0.043 | 0.0174 | -0.0029 | -0.0203 |
| CC1(C)CCC(CN2CCN(c3ccc(C(=O)NS(=O)(=O)c4ccc(NCC5CCOCC5)c([N+](=O)[O-])c4)c(Oc4cnc5[nH]ccc5c4)c3)CC2)=C(c2ccc(Cl)cc2)C1 [Venetoclax] + CCN(CCO)CCCOc1ccc2c(Nc3cc(CC(=O)Nc4cccc(F)c4)[nH]n3)ncnc2c1 [AZD2811] (first compound max 1 µM, 7x7, partner max 1 µM) | 0.214 | 0.157 | 0.248 | 0.153 | 0.831 | 0.266 | 0.806 | 0.445 | -0.067 | -0.053 | -0.0272 | 0.005 | -0.0235 | 0.0269 | -0.0661 | -0.0014 | 0.0166 | 0.003 | 0.0104 | -0.0241 |
| CC1(C)CCC(CN2CCN(c3ccc(C(=O)NS(=O)(=O)c4ccc(NCC5CCOCC5)c([N+](=O)[O-])c4)c(Oc4cnc5[nH]ccc5c4)c3)CC2)=C(c2ccc(Cl)cc2)C1 [Venetoclax] + CN(C)CCCOc1ccc(-c2ccc3ncc4c(c3c2)n(C2CCOCC2)c(=O)n4C)cn1 [AZD0156] (first compound max 1 µM, 7x7, partner max 1 µM) | 0.253 | 0.0973 | 0.281 | 0.208 | 0.755 | 0.217 | 0.235 | 0.262 | -0.058 | -0.0426 | -0.0052 | -0.0194 | -0.0685 | 0.013 | -0.0856 | -0.015 | -0.0369 | -0.0088 | -0.0029 | 0.0022 |
| CC1(C)CCC(CN2CCN(c3ccc(C(=O)NS(=O)(=O)c4ccc(NCC5CCOCC5)c([N+](=O)[O-])c4)c(Oc4cnc5[nH]ccc5c4)c3)CC2)=C(c2ccc(Cl)cc2)C1 [Venetoclax] + COc1cc(Nc2ncc3c(n2)-c2ccc(Cl)cc2C(c2c(F)cccc2OC)=NC3)ccc1C(=O)O [Alisertib] (first compound max 1 µM, 7x7, partner max 10 µM) | 0.516 | 0.656 | 0.401 | 0.311 | 0.954 | 0.358 | 0.939 | 0.964 | -0.0679 | -0.0132 | -0.0192 | -0.0718 | 0.0579 | 0.077 | -0.0154 | 0.0269 | 0.0101 | 0.0168 | -0.0522 | -0.0525 |
| CC1(C)CCC(CN2CCN(c3ccc(C(=O)NS(=O)(=O)c4ccc(NCC5CCOCC5)c([N+](=O)[O-])c4)c(Oc4cnc5[nH]ccc5c4)c3)CC2)=C(c2ccc(Cl)cc2)C1 [Venetoclax] + C[C@@H]1COCCN1C2=NC(=NC(=C2)C3(CC3)[S@](=N)(=O)C)C4=C5C=CNC5=NC=C4 [AZD6738] (first compound max 1 µM, 7x7, partner max 10 µM) | 0.461 | 0.411 | 0.454 | 0.407 | 0.881 | 0.718 | 0.791 | 1 | -0.0671 | -0.0429 | -0.0023 | -0.0278 | -0.0262 | -0.0396 | -0.0291 | -0.0229 | -0.0906 | 0.0104 | -0.014 | 0.0103 |
| CC1(C)CCC(CN2CCN(c3ccc(C(=O)NS(=O)(=O)c4ccc(NCC5CCOCC5)c([N+](=O)[O-])c4)c(Oc4cnc5[nH]ccc5c4)c3)CC2)=C(c2ccc(Cl)cc2)C1 [Venetoclax] + C[C@@H](Nc1cc(F)cc(F)c1)c1cc(C(=O)N(C)C)cc2c(=O)cc(N3CCOCC3)oc12 [AZD8186] (first compound max 1 µM, 7x7, partner max 3 µM) | 0.318 | 0.152 | 0.321 | 0.262 | 0.805 | 0.159 | 0.232 | 0.095 | -0.0539 | -0.0585 | -0.034 | -0.0238 | -0.0603 | 0.0144 | -0.0334 | -0.0207 | -0.034 | -0.0083 | 0.0012 | 0.0028 |
| CC1(C)CCC(CN2CCN(c3ccc(C(=O)NS(=O)(=O)c4ccc(NCC5CCOCC5)c([N+](=O)[O-])c4)c(Oc4cnc5[nH]ccc5c4)c3)CC2)=C(c2ccc(Cl)cc2)C1 [Venetoclax] + Cc1cc2ncnn2cc1Nc1ncc2c(n1)n(C1CCOCC1)c(=O)n2C [AZD7648] (first compound max 1 µM, 7x7, partner max 10 µM) | 0.278 | 0.0854 | 0.248 | 0.28 | 0.743 | 0.222 | 0.327 | 0.356 | -0.0513 | -0.0553 | 0.0189 | 0.004 | -0.0431 | -0.0112 | -0.113 | -0.0219 | -0.0729 | -0.0149 | -0.0088 | 0.0235 |
| CC1(C)CCC(CN2CCN(c3ccc(C(=O)NS(=O)(=O)c4ccc(NCC5CCOCC5)c([N+](=O)[O-])c4)c(Oc4cnc5[nH]ccc5c4)c3)CC2)=C(c2ccc(Cl)cc2)C1 [Venetoclax] + Cn1cnc2c(F)c(Nc3ccc(Br)cc3Cl)c(C(=O)NOCCO)cc21 [Selumetinib] (first compound max 1 µM, 7x7, partner max 3 µM) | 0.329 | 0.352 | 0.553 | 0.217 | 0.742 | 0.654 | 0.462 | 0.876 | -0.0489 | -0.0001 | -0.0356 | -0.0208 | -0.0379 | -0.0156 | -0.0584 | -0.0278 | -0.032 | 0.0052 | 0.0021 | -0.031 |
